Test system: 282377-053-R-J1-PDC complex spheroid viability
Assay: Anticancer human tumor 282377-053-R-J1-PDC patient-derived colon adenocarcinoma cell line growth inhibition [RAS]
Conditions: for IC50: curve of first compound; for viability, T/C: stronger effect = lower value
Summary of the method: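 Multi-cell-type spheroids: tumor cells plus HUVEC endothelial cells and mesenchymal stem cells. RAS-pathway inhibitors were combined with targeted agents, each dosed in half-log steps down from clinical Cmax, or from 10 microM when Cmax was unknown.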

[1] = second compound 0.00316 µM, first compound 0.0316 µM
[2] = second compound 0.00316 µM, first compound 0.1 µM
[3] = second compound 0.01 µM, first compound 0.0316 µM
[4] = second compound 0.01 µM, first compound 0.1 µM
[5] = second compound 0.0316 µM, first compound 0.0316 µM
[6] = second compound 0.0316 µM, first compound 0.1 µM
[7] = second compound 0.1 µM, first compound 0.0316 µM
[8] = second compound 0.1 µM, first compound 0.1 µM
[9] = second compound 0.316 µM, first compound 0.0316 µM
[10] = second compound 0.316 µM, first compound 0.1 µM
[11] = second compound 1 µM, first compound 0.0316 µM
[12] = second compound 1 µM, first compound 0.1 µM
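Note: spheroids exposed to agents for seven days before readout.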
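Throughout, for viability, T/C: luminescence viability as percent of DMSO vehicle control wells.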

CCC(CC)c1cc(NC2CCC(N)C2)n2nccc2n1 (centres undefined) + C=CC(=O)N1CCN(c2nc(OCC3CCCN3C)nc3c(F)c(-c4nc(N)cc(C)c4C(F)(F)F)c(Cl)cc23)C(C)C1 was tested, and the IC50 (second compound 0.00316 µM) was 1940 nM, the IC50 (second compound 0.01 µM) was 1900 nM and the IC50 (second compound 0.0316 µM) was 1820 nM. It also gave an IC50 (second compound 0.1 µM) of 1690 nM, an IC50 (second compound 0.316 µM) of 1860 nM and an IC50 (second compound 1 µM) of 1890 nM. It also gave a viability, T/C [1] of 117%, a viability, T/C [2] of 101% and a viability, T/C (second compound 0.00316 µM, first compound 0.316 µM) of 93.8%. For the same molecule, the viability, T/C (second compound 0.00316 µM, first compound 1 µM) was 116%, the viability, T/C (second compound 0.00316 µM, first compound 3.16 µM) was 7.62% and the viability, T/C (second compound 0.00316 µM, first compound 10 µM) was 2.24%. It also gave a viability, T/C [3] of 110%, a viability, T/C [4] of 98.1% and a viability, T/C (second compound 0.01 µM, first compound 0.316 µM) of 92%. For the same molecule, the viability, T/C (second compound 0.01 µM, first compound 1 µM) was 115%, the viability, T/C (second compound 0.01 µM, first compound 3.16 µM) was 7.28% and the viability, T/C (second compound 0.01 µM, first compound 10 µM) was 1.55%. The viability, T/C [5] was 103%, the viability, T/C [6] was 97% and the viability, T/C (second compound 0.0316 µM, first compound 0.316 µM) was 96.3%. The viability, T/C (second compound 0.0316 µM, first compound 1 µM) was 94.5%, the viability, T/C (second compound 0.0316 µM, first compound 3.16 µM) was 8.89% and the viability, T/C (second compound 0.0316 µM, first compound 10 µM) was 1.69%. It also gave a viability, T/C [7] of 124%, a viability, T/C [8] of 107% and a viability, T/C (second compound 0.1 µM, first compound 0.316 µM) of 113%. For the same molecule, the viability, T/C (second compound 0.1 µM, first compound 1 µM) was 85.3%, the viability, T/C (second compound 0.1 µM, first compound 3.16 µM) was 7.78% and the viability, T/C (second compound 0.1 µM, first compound 10 µM) was 1.54%. It also gave a viability, T/C [9] of 111%, a viability, T/C [10] of 105% and a viability, T/C (second compound 0.316 µM, first compound 0.316 µM) of 109%. For the same molecule, the viability, T/C (second compound 0.316 µM, first compound 1 µM) was 100%, the viability, T/C (second compound 0.316 µM, first compound 3.16 µM) was 7.41% and the viability, T/C (second compound 0.316 µM, first compound 10 µM) was 1.9%. For the same molecule, the viability, T/C [11] was 109%, the viability, T/C [12] was 103% and the viability, T/C (second compound 1 µM, first compound 0.316 µM) was 123%. For the same molecule, the viability, T/C (second compound 1 µM, first compound 1 µM) was 102%, the viability, T/C (second compound 1 µM, first compound 3.16 µM) was 7.89% and the viability, T/C (second compound 1 µM, first compound 10 µM) was 2.25%.

With CC(C)n1nc(-c2ccc3oc(N)nc3c2)c2c(N)ncnc21 + C=CC(=O)N1CCN(c2nc(OCC3CCCN3C)nc3c(F)c(-c4nc(N)cc(C)c4C(F)(F)F)c(Cl)cc23)C(C)C1 the IC50 (second compound 0.00316 µM) was > 100 nM, the IC50 (second compound 0.01 µM) was 89.8 nM and the IC50 (second compound 0.0316 µM) was 94.1 nM. For the same molecule, the IC50 (second compound 0.1 µM) was 85.9 nM, the IC50 (second compound 0.316 µM) was > 100 nM and the IC50 (second compound 1 µM) was > 100 nM. For the same molecule, the viability, T/C (second compound 0.00316 µM, first compound 0.000316 µM) was 96.6%, the viability, T/C (second compound 0.00316 µM, first compound 0.001 µM) was 86.9% and the viability, T/C (second compound 0.00316 µM, first compound 0.00316 µM) was 80%. For the same molecule, the viability, T/C (second compound 0.00316 µM, first compound 0.01 µM) was 87.7%, the viability, T/C [1] was 62.8% and the viability, T/C [2] was 54.5%. For the same molecule, the viability, T/C (second compound 0.01 µM, first compound 0.000316 µM) was 85.3%, the viability, T/C (second compound 0.01 µM, first compound 0.001 µM) was 81% and the viability, T/C (second compound 0.01 µM, first compound 0.00316 µM) was 74.5%. It also gave a viability, T/C (second compound 0.01 µM, first compound 0.01 µM) of 87%, a viability, T/C [3] of 68.8% and a viability, T/C [4] of 47.8%. It also gave a viability, T/C (second compound 0.0316 µM, first compound 0.000316 µM) of 92.2%, a viability, T/C (second compound 0.0316 µM, first compound 0.001 µM) of 98.3% and a viability, T/C (second compound 0.0316 µM, first compound 0.00316 µM) of 87.5%. The viability, T/C (second compound 0.0316 µM, first compound 0.01 µM) was 82.5%, the viability, T/C [5] was 97.5% and the viability, T/C [6] was 47.7%. The viability, T/C (second compound 0.1 µM, first compound 0.000316 µM) was 81.7%, the viability, T/C (second compound 0.1 µM, first compound 0.001 µM) was 105% and the viability, T/C (second compound 0.1 µM, first compound 0.00316 µM) was 91%. It also gave a viability, T/C (second compound 0.1 µM, first compound 0.01 µM) of 78.3%, a viability, T/C [7] of 77.5% and a viability, T/C [8] of 45.7%. For the same molecule, the viability, T/C (second compound 0.316 µM, first compound 0.000316 µM) was 110%, the viability, T/C (second compound 0.316 µM, first compound 0.001 µM) was 103% and the viability, T/C (second compound 0.316 µM, first compound 0.00316 µM) was 109%. For the same molecule, the viability, T/C (second compound 0.316 µM, first compound 0.01 µM) was 68.3%, the viability, T/C [9] was 61.9% and the viability, T/C [10] was 48.6%. It also gave a viability, T/C (second compound 1 µM, first compound 0.000316 µM) of 99.9%, a viability, T/C (second compound 1 µM, first compound 0.001 µM) of 85.1% and a viability, T/C (second compound 1 µM, first compound 0.00316 µM) of 112%. The viability, T/C (second compound 1 µM, first compound 0.01 µM) was 67.7%, the viability, T/C [11] was 55.4% and the viability, T/C [12] was 61.9%.

From PubChem BioAssay AID2060905 (Molecular Pharmacology Branch, DTP, NCI, 2025)
